Experimental data reported in patent US20240018145A1, “[…]-DEPENDENT EN[…] TREATING OR […]” (priority 2020, published 2024).
Like-named read-outs stand apart in the source and are kept apart here.

System: FLU A (PR/8/34)
Assay: Flu A Neuraminidase Antiviral Assay
Type: cell-based

| Compound | EC50 [nM] | EC50 (MDCK, 48 h) [nM] |
| --- | --- | --- |
| CC1CC2N(C)C(=O)c3c(O)c(=O)ccn3N2C(C)(c2ccccc2)C1 (single isomer, unassigned) [Compound 43C, 7-hydroxy-1,3,5-trimethyl-1-phenyl-1,2,3,4,4a,5-hexahydrodipyrido[1,2-b:2′,1′-f][1,2,4]triazine-6,8-dione] | 14.1 |  |
| CN1C(=O)c2c(O)c(=O)ccn2N2C(c3ccccc3)C3CCCC(C3)C12 (single isomer, unassigned) [Compound 11A, 4-hydroxy-6-methyl-12-phenyl-6,6a,7,8,9,10,11,12-octahydro-7,11-methanopyrido[1′,2′:1,6][1,2,4]triazino[2,3-a]azocine-3,5-dione] |  | > 8100 |
| Cc1ccccc1C1N2C(CCC13CCC(F)(F)CC3)N(C)C(=O)c1c(O)c(=O)ccn12 (single isomer, unassigned) [Compound 70A, 4,4-difluoro-7′-hydroxy-5′-methyl-1′-(o-tolyl)-3′,4′,4a′,5′-tetrahydro-1′H-spiro[cyclohexane-1,2′dipyrido[1,2-b:2′,1′-f][1,2,4]triazine]-6′,8′-dione] | 299 |  |
| Cc1ccccc1C1C(CC(F)(C(F)(F)F)C(F)(F)F)CCC2N(C)C(=O)c3c(O)c(=O)ccn3N12 (single isomer, unassigned) [Compound 81B, 7-hydroxy-5-methyl-2-(2,3,3,3-tetrafluoro-2-(trifluoromethyl)propyl)-1-(o-tolyl)-1,2,3,4,4a,5-hexahydrodipyrido[1,2-b:2′,1′-f][1,2,4]triazine-6,8-dione] | 744 |  |
| CCC1(c2ccccc2)CCCC2N(C)C(=O)c3c(O)c(=O)ccn3N21 (single isomer, unassigned) [Compound 22B, 1-ethyl-7-hydroxy-5-methyl-1-phenyl-1,2,3,4,4a,5-hexahydrodipyrido[1,2-b:2′,1′-f][1,2,4]triazine-6,8-dione] | 5290 |  |
| Cc1cccnc1C1(C)CCCC2N(CC(F)(F)F)C(=O)c3c(O)c(=O)ccn3N21 (single isomer, unassigned) [Compound 44A, 7-hydroxy-1-methyl-1-(3-methylpyridin-2-yl)-5-(2,2,2-trifluoroethyl)-1,2,3,4,4a,5-hexahydrodipyrido[1,2-b:2′,1′-f][1,2,4]triazine-6,8-dione] | > 8100 |  |
| CCCC1CCC2N(C)C(=O)c3c(O)c(=O)ccn3N2C1c1ccccc1C (single isomer, unassigned) [Compound 92B, 7-hydroxy-5-methyl-2-propyl-1-(o-tolyl)-1,2,3,4,4a,5-hexahydrodipyrido[1,2-b:2′,1′-f][1,2,4]triazine-6,8-dione] | 3.3 |  |
| CN1C(=O)c2c(O)c(=O)ccn2N2C(c3cccc4ccccc34)CCCC12 (single isomer, unassigned) [Compound 5A, 7-hydroxy-5-methyl-1-(naphthalen-1-yl)-1,2,3,4,4a,5-hexahydrodipyrido[1,2-b:2′,1′-f][1,2,4]triazine-6,8-dione] |  | 1530 |
| CN1C(=O)c2c(O)c(=O)ccn2N2C(c3ccccc3)C(c3cc(F)c(F)cc3F)CCC12 (single isomer, unassigned) [Compound 86A, 7-hydroxy-5-methyl-1-phenyl-2-(2,4,5-trifluorophenyl)-1,2,3,4,4a,5-hexahydrodipyrido[1,2-b:2′,1′-f][1,2,4]triazine-6,8-dione] | 4.3 |  |
| CN1C(=O)c2c(O)c(=O)ccn2N2C(c3ccc(Cl)c(F)c3)CCCC12 (single isomer, unassigned) [Compound 3B, 1-(4-chloro-3-fluorophenyl)-7-hydroxy-5-methyl-1,2,3,4,4a,5-hexahydrodipyrido[1,2-b:2′,1′-f][1,2,4]triazine-6,8-dione] | > 2700 |  |
| CCN1C(=O)c2c(O)c(=O)ccn2N2C1CCCC2(C)c1ccccc1 (single isomer, unassigned) [Compound 36B, 5-ethyl-7-hydroxy-1-methyl-1-phenyl-1,2,3,4,4a,5-hexahydrodipyrido[1,2-b:2′,1′-f][1,2,4]triazine-6,8-dione] | 1290 |  |
| Cc1ccccc1C1C(CC(F)(C(F)(F)F)C(F)(F)F)CCC2N(C)C(=O)c3c(O)c(=O)ccn3N12 (single isomer, unassigned) [Compound 81A, 7-hydroxy-5-methyl-2-(2,3,3,3-tetrafluoro-2-(trifluoromethyl)propyl)-1-(o-tolyl)-1,2,3,4,4a,5-hexahydrodipyrido[1,2-b:2′,1′-f][1,2,4]triazine-6,8-dione] | 19.1 |  |
| CN1C(=O)c2c(O)c(=O)ccn2N2C(c3cc(F)ccc3C(F)(F)F)CCCC12 (single isomer, unassigned) [Compound 13B, 1-(5-fluoro-2-(trifluoromethyl)phenyl)-7-hydroxy-5-methyl-1,2,3,4,4a,5-hexahydro-dipyrido[1,2-b:2′,1′-f][1,2,4]triazine-6,8-dione] | 783 |  |
| CN1C(=O)c2c(O)c(=O)ccn2N2C(c3ccccc3)C(c3ccc(F)c(F)c3F)CCC12 (single isomer, unassigned) [Compound 85A, 7-hydroxy-5-methyl-1-phenyl-2-(2,3,4-trifluorophenyl)-1,2,3,4,4a,5-hexahydrodipyrido[1,2-b:2′,1′-f][1,2,4]triazine-6,8-dione] | > 810 |  |
| CN1C(=O)c2c(O)c(=O)ccn2N2C(c3ccccc3)C(O)CCC12 (stereo not drawn) [Compound 136B, 2,7-dihydroxy-5-methyl-1-phenyl-1,2,3,4,4a,5-hexahydrodipyrido[1,2-b:2′,1′-f][1,2,4]triazine-6,8-dione] | > 8100 |  |
| CN1C(=O)c2c(O)c(=O)ccn2N2C(c3ccccc3Br)C(CC(F)(F)F)CCC12 (single isomer, unassigned) [Compound 89A, 1-(2-bromophenyl)-7-hydroxy-5-methyl-2-(2,2,2-trifluoroethyl)-1,2,3,4,4a,5-hexahydrodipyrido[1,2-b:2′,1′-f][1,2,4]triazine-6,8-dione] | 298 |  |
| CN1C(=O)c2c(O)c(=O)ccn2N2C1CCCC2(C)c1cccc(F)c1 (single isomer, unassigned) [Compound 25A, 1-(3-fluorophenyl)-7-hydroxy-1,5-dimethyl-1,2,3,4,4a,5-hexahydrodipyrido[1,2-b:2′,1′-f][1,2,4]triazine-6,8-dione] | 3.5 |  |
| CC(C1CCC2N(C)C(=O)c3c(O)c(=O)ccn3N2C1c1ccccc1)C(F)(F)F (single isomer, unassigned) [Compound 109B, 7-hydroxy-5-methyl-1-phenyl-2-(1,1,1-trifluoropropan-2-yl)-1,2,3,4,4a,5-hexahydrodipyrido[1,2-b:2′,1′-f][1,2,4]triazine-6,8-dione] | 5.4 |  |
| CC1CC2N(C)C(=O)c3c(O)c(=O)ccn3N2C(C)(c2ccccc2)C1 (single isomer, unassigned) [Compound 43D, 7-hydroxy-1,3,5-trimethyl-1-phenyl-1,2,3,4,4a,5-hexahydrodipyrido[1,2-b:2′,1′-f][1,2,4]triazine-6,8-dione] | 7.8 |  |
| CCN1C(=O)c2c(O)c(=O)ccn2N2C(c3ccccc3)C(c3ccc(F)c(F)c3)CCC12 (single isomer, unassigned) [Compound 94B, 2-(3,4-difluorophenyl)-5-ethyl-7-hydroxy-1-phenyl-1,2,3,4,4a,5-hexahydrodipyrido[1,2-b:2′,1′-f][1,2,4]triazine-6,8-dione] | 8.6 |  |
| CN1C(=O)c2c(O)c(=O)ccn2N2C(c3ccccc3)[C@H]3CCCC[C@H]3C12 (stereo partly drawn) [Compound 16, (6bR,10aS)-4-hydroxy-6-methyl-11-phenyl-6a,6b,7,8,9,10,10a,11-octahydro-3H-pyrido[1′,2′:1,6][1,2,4]triazino[3,2-a]isoindole-3,5(6H)-dione] |  | 4100 |
